For this series, the system named is mouse plasma stability, LC-MS/MS, 48 h. The series can be described thus: qHTS Assay to Find Inhibitors of T. brucei phosphofructokinase: Mouse Plasma Stability Profiling. The conditions noted are these: at 2 µM; hits give high values.

As for `O=C(Cc1ccc(Cl)c(Cl)c1)Nc1ccc(S(=O)(=O)Nc2ccon2)cc1`, the percent remaining was 100%.

These data come from PubChem BioAssay AID624143 (National Center for Advancing Translational Sciences (NCATS), 2012).
